Experimental data as given in patent US20260232827A1, “ANTIBODY-DRUG CONJUGATES TARGETING NAPI2B AND METHODS OF USE” (Zymeworks BC Inc., priority 2023, published 2026).
Where two headings read alike, the source gives them in different places.

Assays:
[1] = system: human myeloid progenitors; assay: Colony-forming unit (CFU) assay, target-independent cytotoxicity; type: cell-based; details: 336 h
Source text: (§1) The non-specific (target-independent) cytotoxicity of ADCs in human erythroid and myeloid progenitors is of interest as, in the context of off-target toxicities, uptake and trafficking of intact ADCs into normal cells can occur by different mechanisms following administration of ADC in vivo, including target-dependent, for example, NaPi2b-dependent internalization, or target-independent mechanisms, for example, FcγR-dependent internalization or non-specific endocytosis (Mahalingaiah et al., Pharmacol Ther. 2019 August; 200:110-125). Profiling the in vitro target-independent cytotoxicity of ADCs to erythroid and myeloid progenitors may further understanding of their interactions in vivo.
(§2) Briefly, 20,000 human bone marrow-isolated HSC CD34+ were seeded in a semi-solid methylcellulose-based media formulation containing recombinant human interleukin-3 (rhIL-3, 10 ng/mL), rh granulocyte-macrophage-colony-stimulating factor (rhGM-CSF, 10 ng/mL), rh stem cell factor (rhSCF, 50 ng/mL) and Erythropoietin (Epo, 3 U/mL), to induce differentiation into clonogenic progenitors of human erythroid (CFU-erythroid CFU-E, burst-forming unit-erythroid BFU-E), granulocyte-monocyte (CFU-granulocyte-macrophage CFU-GM) and multipotential (CFU-granulocyte-erythroid-monocyte-megakaryocyte CFU-GEMM). […] After treatment, erythroid and myeloid colonies were assessed microscopically and scored. The colonies were divided into the following categories based on size and morphology: CFU-E, BFU-E, CFU-GM and CFU-GEMM. Percent survivability values were calculated based on the number of colonies after treatment over the number of colonies after solvent controls treatment and plotted against test article concentration using GraphPad Prism 9 software (GraphPad Software, La Jolla, CA). IC50 values were calculated based on a non-linear regression log(inhibitor) versus response, variable slope (four parameters) by GraphPad Prism 9.

[2] = system: human erythroid progenitors; assay: as above; type: cell-based; details: 336 h
Source text: as §1, §2

[3] = system: Construct 4 (chimeric human NaPi2b, region 341-358); assay: Binding region mapping, flow cytometry on transfected HEK293-6e cells; details: antibody 20.0 nM, 24 hours at 4° C.
Source text: (§3) NaPi2b constructs containing deletions in the main extracellular loop of human NaPi2b, as well as chimeric NaPi2b/NaPi2c constructs concerning this main loop, were generated.
(§4) As a complementary strategy, two additional constructs were designed in which the relevant region of the main loop was deleted such as to mimic NaPi2c/NaPi2a main extracellular loop (Constructs 6-7 in Table 52.1). Clones were generated at GenScript Biotech (Piscataway, NJ).
(§5) Constructs were expressed in HEK293-6e cells as follows. Cells were maintained under standard culture conditions (37° C./5% CO2) with shaking at 110 rpm for suspension and cultured in FreeStyle™ 293 Expression Medium (Thermo Fisher Scientific, Waltham, MA) supplemented with 1% fetal bovine serum (Thermo Fisher Scientific, Waltham, MA) and 1× Penicillin-Streptomycin (Thermo Fisher Scientific, Waltham, MA). Cells were transfected with clones expressing the constructs listed in Table 52.1, at 1 μg of DNA per 1 million cells, using 293Fectin™ Transfection Reagent (Thermo Fisher Scientific, Waltham, MA) and Opti-MEM™ I Reduced Serum Medium (Thermo Fisher Scientific, Waltham, MA), and incubated for 24 hours under standard culture conditions (37° C./5% CO2/110 rpm). Following transfection, cells were seeded at 50,000 cells/well in conical-bottom 96-well plates and treated with a serial dilution of test antibody for 24 hours at 4° C. to prevent internalization. Cells were treated with final concentrations of all humanized antibodies of 200, 20, or 2 nM. Cells were treated with final concentrations of the reference anti-NaPi2a rabbit antibody of 50, 5, or 0.5 nM. […] Following incubation and washing, fluorescence was detected by flow cytometry on a BD LSRFortessa™ Cell Analyzer (BD Biosciences, Franklin Lake, NJ) with 1,000 minimum events collected per well. […] Background-subtracted AF647 Mean Fluorescence Intensity (MFI) values were calculated by subtracting the average MFI of three technical replicates of unstained (no primary antibody) cells.

[4] = system: Construct 1 (chimeric human NaPi2b, region 239-259); assay: as above; details: 24 hours at 4° C.
Source text: as §3, §4, §5

[5] = system: Construct 2 (chimeric human NaPi2b, region 280-301); assay: as above; details: 24 hours at 4° C.
Source text: as §3, §4, §5

human NaPi2b = target: T1, human NaPi2b (Homo sapiens, UniProt O95436); assay: Competition binding (epitope binning) by flow cytometry, transfected HEK293-6e cells; details: unlabeled competitor 100 μg/mL, detection antibody 1 μg/mL
T1 construct: Full length human NaPi2b; host or cells: HEK293-6e
T1 sequence (O95436 1-690): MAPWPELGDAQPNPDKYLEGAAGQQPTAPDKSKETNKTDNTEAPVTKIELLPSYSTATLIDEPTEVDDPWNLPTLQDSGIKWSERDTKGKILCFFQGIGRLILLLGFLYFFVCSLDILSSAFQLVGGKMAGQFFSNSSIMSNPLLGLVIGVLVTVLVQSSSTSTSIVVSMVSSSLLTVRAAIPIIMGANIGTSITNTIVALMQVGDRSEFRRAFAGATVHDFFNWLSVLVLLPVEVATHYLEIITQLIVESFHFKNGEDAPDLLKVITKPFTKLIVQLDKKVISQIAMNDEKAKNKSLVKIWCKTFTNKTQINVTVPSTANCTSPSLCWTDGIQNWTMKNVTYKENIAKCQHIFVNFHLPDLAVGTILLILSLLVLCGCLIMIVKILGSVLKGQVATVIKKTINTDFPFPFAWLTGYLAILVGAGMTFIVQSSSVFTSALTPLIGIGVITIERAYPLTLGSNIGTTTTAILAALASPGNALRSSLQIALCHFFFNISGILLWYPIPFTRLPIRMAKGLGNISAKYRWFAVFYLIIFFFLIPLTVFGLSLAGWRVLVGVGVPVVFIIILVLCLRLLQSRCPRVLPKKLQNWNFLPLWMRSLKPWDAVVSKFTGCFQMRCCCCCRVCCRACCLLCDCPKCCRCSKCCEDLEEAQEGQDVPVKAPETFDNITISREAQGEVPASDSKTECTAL
Experimental: Binding was assessed by flow cytometry using HEK293-6e cells as described below.
HEK293-6e cells were transfected for ~24 hours to transiently express human NaPi2b (1 μg of pTT5-NaPi2b per 1 million cells) or transfected with GFP (ATUM, Menlo Park, CA; pD2610-v23, also 1 μg of DNA per 1 million cells). Following transfection, human NaPi2b-expressing HEK296-6e cells and transfected GFP-expressing HEK296-6e cells were mixed at 4:1 ratio. Each well of a V-bottom 96-well plate was seeded with 100,000 cells of the mixture and incubated with 100 μg/mL of unlabeled competitor anti-NaPi2b antibody for an hour on ice. Post incubation, cells were washed and stained with 1 μg/mL of AF647-conjugated anti-NaPi2b detection antibodies for an hour on ice. Following staining and washing, fluorescence was detected by flow cytometry on a BD LSRFortessa™ Cell Analyzer (BD Biosciences, Franklin Lake, NJ) with 10,000 minimum events collected per well. […] Percentage inhibition was calculated using the following formula: […]

CC[C@@]1(O)C(=O)OCc2c1cc1n(c2=O)Cc2c-1nc1cc(F)c(C)cc1c2CNC(=O)OCCO [Compound 139, 2-hydroxyethyl (S)-((4-ethyl-8-fluoro-4-hydroxy-9-methyl-3,14-dioxo-3,4,12,14-tetrahydro-1H-pyrano[3′,4′:6,7]indolizino[1,2-b]quinolin-11-yl)methyl)carbamate]
IC50 ([1]; 14 days incubation, read-out: Human IC50, Myeloid progenitors): 1.75 nM
IC50 ([1]; 14 days, read-out: IC50, myeloid progenitors): 1.75 nM
IC50 ([2]; 14 days incubation, read-out: Human IC50, Erythroid progenitors): 1.32 nM
IC50 ([2]; 14 days, read-out: IC50, erythroid progenitors): 1.32 nM

lifastuzumab [lifastuzumab (v18993)]
Background-Subtracted AF647 Mean Fluorescence Intensity [3]: 1,049
Background-Subtracted AF647 Mean Fluorescence Intensity ([4]; antibody 2.0 nM): 1,232
Background-Subtracted AF647 Mean Fluorescence Intensity ([4]; antibody 20.0 nM): 1,697
Background-Subtracted AF647 Mean Fluorescence Intensity ([4]; antibody 200.0 nM): 1,508
Background-Subtracted AF647 Mean Fluorescence Intensity ([5]; antibody 20.0 nM): 1,198
Background-Subtracted AF647 Mean Fluorescence Intensity ([5]; antibody 200.0 nM): 1,232

Palivizumab [v16955 (negative control)]
% Inhibition vs. irrelevant mAb, labeled detection antibody v16955 (negative control) (human NaPi2b): 0%
% Inhibition vs. irrelevant mAb, labeled detection antibody v18992 (MX35) (human NaPi2b): 0%
% Inhibition vs. irrelevant mAb, labeled detection antibody v18993 (lifastuzumab) (human NaPi2b): 0%
% Inhibition vs. irrelevant mAb, labeled detection antibody v23855 (human NaPi2b): 0%
